Our source for the GI50 and TGI values is PubChem BioAssay (NCI).

Values joined by “and” are separate entries in the source; they are usually repeats but may differ in a detail not shown here. Equal values may be shown once.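 Five concentrations, 48 hours, 96-well plates. At the GI50, growth is halved. The concentration for full growth arrest is given as TGI.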

For the experiment, the system named is MDA-MB-468 breast. The experiment can be described thus: inhibition of tumour cell growth, NCI panel, 48 h.
For `Nc1cc(-c2cccc(OC(F)(F)F)c2)nc2ccc(N3CCCC3)cc12`, the GI50 was 0.0337 µM and 0.0304 µM and 0.0288 µM; the TGI was 0.237 µM and 0.115 µM and 0.136 µM.
For `C=CCN1C=CC(=O)[C@H](O[Si](C)(C)C(C)(C)C)[C@@H]1/C=C/c1ccccc1`, the GI50 is 8.27 µM and the TGI was found to be 22.2 µM.
On the same counts, the results for `Cc1cc(N2CCCC2)nc(NC2CCCC(Nc3ccnc4cc(Cl)ccc34)C2)n1` (configuration not stated) are 1.41 µM and 3.14 µM.
For `COc1ccc(-c2nc3ncccn3c2/C=C/C(=O)c2cc(OC)c(OC)c(OC)c2)cc1`, in that order: 1.81 µM and 3.65 µM.
On the same counts, the results for `O=c1[nH]ccc2nc(N3CCC(O)CC3)nc(Nc3cccc(C(F)(F)F)c3)c12` are 1.76 µM and 7.11 µM.
`CCN(CC)CCOc1ccc(C(=C(C)Cc2ccc(OC)cc2)c2ccc(OCCN(CC)CC)cc2)cc1`: the GI50 was 3.27 µM and the TGI was 6.65 µM.
Consider `CCOc1ccc(Nc2nc(-c3ccc4c(c3)NC(=O)CO4)cs2)cc1`, for which the GI50 is 2.46 µM and the TGI came out at 8.04 µM.
On the same counts, the results for `Cc1cc(-c2nnc(N)nc2-c2ccc(F)cc2)cc(Cl)n1` are 20.6 µM and greater than 100 µM.
For `COc1c(Cl)c2c(c(OC)c1OC)-c1ccc(SC)c(=O)cc1[C@@H](NC(=O)OCC(F)(F)F)CC2`, in that order: less than 0.01 µM and 17.3 µM.
For `Cc1cc(N2CCN(c3ccnc4cc(Cl)ccc34)CC2)nc(NC2CCCCC2)n1`, in that order: 1.59 µM and 3.88 µM.
In the case of `C=C[C@H]1CCC/C=C/[C@@H]2C[C@H](O)C[C@H]2[C@H](O)/C=C/C(=O)O1`, the GI50 was less than 0.01 µM and the TGI was less than 0.0153 µM.
As for `c1cc(OCCN2CCCCC2)ccc1CNc1ccc2nc(CCC3CCCCC3)[nH]c2c1`, the GI50 is 1.58 µM and the TGI was 3.84 µM.
As to `Cn1ccnc1C(=O)/C=C/c1ccc(CNC(=O)c2ccc(F)cc2)cc1`, the GI50 was 1.66 µM and the TGI stood at 7.04 µM.
With `O=C(N/N=C/c1ccccc1Cl)c1ccccc1Nc1ccnc(C(F)(F)F)c1`, the GI50 was 2.25 µM and the TGI is 11.1 µM.
For `CCN=c1cc2sc3cc(NCC)c(C)cc3nc-2cc1C`, the GI50 was 0.86 µM and the TGI was determined as 5.57 µM.
Take `COC(=O)c1c2c(c(C)[n+]([O-])c1C)C(=O)C=C(NCc1ccc(OC)cc1)C2=O`: the GI50 was 0.679 µM and the TGI was 2.01 µM.
As for `NC(=O)c1ccc2c(-c3ccnc(NCCCO)n3)c(-c3ccc(F)cc3)nn2c1`, the GI50 is greater than 16.1 µM and the TGI is greater than 25 µM.
Turning to `O=CN1N=C(c2ccc(Cl)cc2)CC1c1cccc(Nc2ccnc3cc(Cl)ccc23)c1` (configuration not stated), the GI50 is 0.284 µM and the TGI turned out to be 3.93 µM.
On the same counts, the results for `CC1(C)CC(n2cnc(-c3ccc(F)cc3)c2-c2ccnc(N)n2)CC(C)(C)N1` are 4.23 µM and 24.2 µM.
As to `O=C(Nc1ccc(F)cc1F)c1cc(Br)ccc1O`, the GI50 is 2.54 µM and the TGI is 6.91 µM.
On the same counts, the results for `CCCN1CCN(c2ccc3nc(-c4ccc5nc(-c6cc(OC)ccc6OC)[nH]c5c4)[nH]c3c2)CC1` are 1.7 µM and 3.31 µM.
For `COc1ccc(CNc2c3ccccc3nc3ccc(OC)cc23)cc1`, in that order: 1.82 µM and 4.31 µM.
With `O=C([O][Hg][CH2]C1COCC([CH2][Hg][O]C(=O)c2ccccc2)O1)c1ccccc1` (configuration not stated), the GI50 is 1.72 µM and the TGI turned out to be 3.24 µM.
On the same counts, the results for `C[C@@H]1N=C(c2ccc(Br)cc2)Nc2nc3ccccn3c2C1=O` are 1.98 µM and 5.12 µM.
`O=P([O-])(O)OP(=O)([O-])O.[NH-][C@@H]1CCCC[C@H]1[NH-].[Pt+4]`: the GI50 was 21.5 µM and 8.19 µM; the TGI is > 100 µM and 27.7 µM.
`COc1cc2c(Oc3ccc4[nH]c(C)cc4c3F)ccnc2cc1OCC1(N)CC1`: the GI50 is 0.312 µM and the TGI came out at 1.67 µM.
On the same counts, the results for `O=C(CC12CC3CC(CC(C3)C1)C2)NCCOCCOCCOCCNC(=O)c1cc2c(o1)C(=O)c1ccccc1C2=O` are 1.39 µM and 4.36 µM.
As to `O=S(=O)(c1ccc(N=C2NN=C(c3c[nH]c4ccccc34)CS2)cc1)N1CCOCC1`, the GI50 is 5.46 µM and the TGI is greater than 100 µM.
On the same counts, the results for `Cc1ccc(NC2=C(Cl)C(=O)c3nc(C)ccc3C2=O)c(C)c1` are 1.61 µM and 3.32 µM.
On the same counts, the results for `Cc1ccc(-c2nc(N)nc3c2nnn3Cc2cccc(CO[C@H]3CCOC3)n2)o1` are 44.4 µM and greater than 100 µM.
As to `CN(C)C1CCN(C(=O)c2ccc(NC(=O)Nc3ccc(-c4nc(N5CCOCC5)nc(N5CCOCC5)n4)cc3)cc2)CC1`, the GI50 was 0.00749 µM and 0.013 µM; the TGI is 0.0636 µM and 0.185 µM.
